In general, Kd refers to the equilibrium constant for the complex coming apart.

For this test, the target named is T1, Formate dehydrogenase (FDH, Candida boidinii) ([Candida] boidinii, UniProt O13437).
T1 sequence (O13437 1-364): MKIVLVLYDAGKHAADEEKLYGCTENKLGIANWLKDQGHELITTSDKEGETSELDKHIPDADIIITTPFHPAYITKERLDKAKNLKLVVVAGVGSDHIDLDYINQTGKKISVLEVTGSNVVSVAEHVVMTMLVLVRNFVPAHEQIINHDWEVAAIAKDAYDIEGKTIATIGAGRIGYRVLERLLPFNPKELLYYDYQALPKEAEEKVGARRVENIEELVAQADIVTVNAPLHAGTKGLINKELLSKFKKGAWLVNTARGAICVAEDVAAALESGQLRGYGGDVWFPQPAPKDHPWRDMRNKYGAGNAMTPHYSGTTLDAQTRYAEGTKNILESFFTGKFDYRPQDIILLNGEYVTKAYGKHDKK
The experiment in a line: isothermal titration calorimetry. It counts as binding. Background: In ITC the heat of successive injections is recorded.

In turn, `[N-]=[N+]=NCc1ccc[n+]([C@@H]2O[C@H](COP(=O)(O)OP(=O)(O)OC[C@H]3O[C@@H](n4cnc5c(N)ncnc54)[C@H](O)[C@@H]3O)[C@@H](O)[C@H]2O)c1` [PAAD^+] showed a Kd of 7 µM.

For the origin of these results see PMC3260785 (The Journal of Physical Chemistry. B, 2011).
